Each block holds one molecule with its values, some of them ahead of it.
Target: T1, EPAC1-CNBD (Homo sapiens, UniProt O95398)
T1 sequence (O95398 169-318 isoform O95398-3): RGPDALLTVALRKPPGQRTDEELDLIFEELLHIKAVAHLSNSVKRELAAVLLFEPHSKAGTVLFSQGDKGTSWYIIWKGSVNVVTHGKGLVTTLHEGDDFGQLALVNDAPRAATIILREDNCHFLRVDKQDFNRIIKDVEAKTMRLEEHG
Assay: 8-NBD-cAMP competition binding assay, EPAC1-CNBD
Details: for RFI (%) (relative fluorescence intensity), Table 3 / RFI (%) (relative fluorescence intensity), Table 4 / RFI (%) (relative fluorescence intensity), Table 2 / RFI (%) (relative fluorescence intensity), Table 1: compound 10 µM, EPAC1-CNBD 0.8 µM, 8-NBD-cAMP 62.5 nM, mean ± SEM, lower RFI = stronger binding; for EPAC1 binding potency / affinity in words: SAR comment on RFI, mostly relative to 3 or 9a

SMILES: Cc1cc(C)c(S(=O)(=O)NC(=O)CNc2ccc3ccccc3c2)c(C)c1 [Compound 12b, N-(Mesitylsulfonyl)-2-(naphthalen-2-ylamino)acetamide]
RFI (%) (relative fluorescence intensity), Table 3: 97 ± 5%

SMILES: Cc1ccc(S(=O)(=O)NC(=O)COc2ccc3[nH]ccc3c2)c(C)c1 [Compound 9r, 2-((1H-Indol-5-yl)oxy)-N-((2,4-dimethylphenyl)sulfonyl)acetamide]
RFI (%) (relative fluorescence intensity), Table 2: 91 ± 2%

SMILES: Cc1cc(C)c(S(=O)(=O)NCCOc2ccc3ccccc3c2)c(C)c1 [Compound 12c, 2,4,6-Trimethyl-N-(2-(naphthalen-2-yloxy)ethyl)benzenesulfonamide]
EPAC1 binding potency / affinity in words: partial or complete loss of binding activity | RFI (%) (relative fluorescence intensity), Table 3: 105 ± 4%

SMILES: Cc1ccc(S(=O)(=O)NC(=O)COc2cccc3ccccc23)c(C)c1 [Compound 9q, N-((2,4-dimethylphenyl)sulfonyl)-2-(naphthalen-1-yloxy)acetamide]
RFI (%) (relative fluorescence intensity), Table 2: 71 ± 1%

SMILES: Cc1ccc(S(=O)(=O)NCCOc2ccc3ccccc3c2)c(C)c1 [Compound 12g, 2,4-Dimethyl-N-(2-(naphthalen-2-yloxy)ethyl)benzenesulfonamide]
EPAC1 binding potency / affinity in words: partial or complete loss of binding activity | RFI (%) (relative fluorescence intensity), Table 3: 81 ± 3%

SMILES: Cc1cc(C)c(S(=O)(=O)NC(=O)CN2CCn3c(nnc3C(F)(F)F)C2)c(C)c1 [Compound 9l, N-(Mesitylsulfonyl)-2-(3-(trifluoromethyl)-5,6-dihydro-[1,2,4]triazolo[4,3-a]pyrazin-7(8H)-yl)acetamide]
RFI (%) (relative fluorescence intensity), Table 1: 104 ± 2%

SMILES: Cc1cc(C)c(S(=O)(=O)NC(=O)CN2CCN(c3ccccn3)CC2)c(C)c1 [Compound 9m, N-(Mesitylsulfonyl)-2-(4-(pyridin-2-yl)piperazin-1-yl)acetamide]
RFI (%) (relative fluorescence intensity), Table 1: 119 ± 8%

SMILES: Cc1ccc(S(=O)(=O)NC(=O)C(C)(C)Oc2ccc3ccccc3c2)c(C)c1 [Compound 12f, N ((2,4-Dimethylphenyl)sulfonyl)-2-methyl-2-(naphthalen-2-yloxy)propenamide]
EPAC1 binding potency / affinity in words: partial or complete loss of binding activity | RFI (%) (relative fluorescence intensity), Table 3: 76 ± 3%

SMILES: COc1ccc2ccc(OCC(=O)NS(=O)(=O)c3c(C)cc(C)cc3C)cc2c1 [Compound 9e, N-(Mesitylsulfonyl)-2-((7-methoxynaphthalen-2-yl)oxy)acetamide]
RFI (%) (relative fluorescence intensity), Table 1: 49 ± 3% | fold improvement in binding potency compared to 9a (from RFI at 10 µM): about 1.7 fold

SMILES: Cc1cc(C)c(S(=O)(=O)N2CCC(Oc3ccc4ccccc4c3)CC2)c(C)c1 [Compound 12d, 1-(Mesitylsulfonyl)-4-(naphthalen-2-yloxy)piperidine]
EPAC1 binding potency / affinity in words: partial or complete loss of binding activity | RFI (%) (relative fluorescence intensity), Table 3: 105 ± 3%

SMILES: Cc1cc(C)c(S(=O)(=O)NC(=O)COc2cccc3ccccc23)c(C)c1 [Compound 9b, N-(Mesitylsulfonyl)-2-(naphthalen-1-yloxy)acetamide]
EPAC1 binding potency / affinity in words: no significant improvement | RFI (%) (relative fluorescence intensity), Table 1: 94 ± 5%

SMILES: Cc1ccc(S(=O)(=O)NC(=O)COc2ccc3[nH]ncc3c2)c(C)c1 [Compound 9s, 2-((1H-Indazol-5-yl)oxy)-N-((2,4-dimethylphenyl)sulfonyl)acetamide]
RFI (%) (relative fluorescence intensity), Table 2: 94 ± 4%

SMILES: Cc1ccc(S(=O)(=O)NC(=O)COc2ccc3cc(Cl)ccc3c2)c(C)c1 [Compound 9n, 2-((6-Chloronaphthalen-2-yl)oxy)-N-((2,4-dimethylphenyl)sulfonyl)acetamide]
RFI (%) (relative fluorescence intensity), Table 2: 50 ± 2%

SMILES: Cc1cc(C)c(S(=O)(=O)NC(=O)CSc2nc3ccccc3c(=O)[nH]2)c(C)c1 [Compound 9i, N-(Mesitylsulfonyl)-2-((4-oxo-3,4-dihydroquinazolin-2-yl)thio)acetamide]
RFI (%) (relative fluorescence intensity), Table 1: 95 ± 4%

SMILES: Cc1cc(C)c(S(=O)(=O)NC(=O)C(F)Oc2ccc3ccccc3c2)c(C)c1 (stereo not drawn) [Compound 12e, 2-Fluoro-N-(mesitylsulfonyl)-2-(naphthalen-2-yloxy)acetamide]
RFI (%) (relative fluorescence intensity), Table 3: 82 ± 4%

Results, then the molecule that gave them:

RFI (%) (relative fluorescence intensity), Table 4: 67 ± 3%
SMILES: O=C(COc1ccc2ccccc2c1)NS(=O)(=O)c1cccc([N+](=O)[O-])c1 [Compound 25x, 2-(Naphthalen-2-yloxy)-N-((3-nitrophenyl)sulfonyl)acetamide]

RFI (%) (relative fluorescence intensity), Table 4: 20 ± 3% | fold binding potency increase versus compound 3 (from RFI at 10 µM): about 3 fold
SMILES: Cc1cc(Nc2ccc(C(F)(F)F)cn2)cc(S(=O)(=O)NC(=O)COc2ccc3ccccc3c2)c1 [Compound 25v, N-((3-Methyl-5-((5-(trifluoromethyl)pyridin-2-yl)amino)phenyl)sulfonyl)-2-(naphthalen-2-yloxy)acetamide]

RFI (%) (relative fluorescence intensity), Table 4: 34 ± 5%
SMILES: Cc1cc(-c2ccnn2C)cc(S(=O)(=O)NC(=O)COc2ccc3ccccc3c2)c1 [Compound 25t, N-((3-Methyl-5-(1-methyl-1H-pyrazol-5-yl)phenyl)sulfonyl)-2-(naphthalen-2-yloxy)acetamide]

RFI (%) (relative fluorescence intensity), Table 4: 38 ± 2% | fold binding potency increase versus compound 3 (from RFI at 10 µM): about 1.6 fold
SMILES: Cc1cc(C)cc(S(=O)(=O)NC(=O)COc2ccc3ccccc3c2)c1 [Compound 25a, N-((3,5-Dimethylphenyl)sulfonyl)-2-(naphthalen-2-yloxy)acetamide]

EPAC1 binding potency / affinity in words: decreased the binding potency | RFI (%) (relative fluorescence intensity), Table 4: 82 ± 4%
SMILES: O=C(COc1ccc2ccccc2c1)NS(=O)(=O)c1cccc(F)c1 [Compound 25c, N-((3-Fluorophenyl)sulfonyl)-2-(naphthalen-2-yloxy)acetamide]

RFI (%) (relative fluorescence intensity), Table 4: 58 ± 2%
SMILES: Cc1cc(Br)cc(S(=O)(=O)NC(=O)COc2ccc3ccccc3c2)c1 [Compound 25j, N-((3-Bromo-5-methylphenyl)sulfonyl)-2-(naphthalen-2-yloxy)acetamide]

RFI (%) (relative fluorescence intensity), Table 4: 24 ± 2%
SMILES: COc1ccc2ccc(OCC(=O)NS(=O)(=O)c3ccc([N+](=O)[O-])cc3OC)cc2c1 [Compound 25m, N-((2-Methoxy-4-nitrophenyl)sulfonyl)-2-((7-methoxynaphthalen-2-yl)oxy)acetamide]

EPAC1 binding potency / affinity in words: complete loss of affinity | RFI (%) (relative fluorescence intensity), Table 4: 81±3%
SMILES: O=C(COc1ccc2ccccc2c1)NS(=O)(=O)C1CCCCC1 [Compound 25aa, N-(Cyclohexylsulfonyl)-2-(naphthalen-2-yloxy)acetamide]

EPAC1 binding potency / affinity in words: decreased the binding potency | RFI (%) (relative fluorescence intensity), Table 4: 69 ± 2%
SMILES: O=C(COc1ccc2ccccc2c1)NS(=O)(=O)c1ccccc1F [Compound 25b, N-((2-Fluorophenyl)sulfonyl)-2-(naphthalen-2-yloxy)acetamide]

RFI (%) (relative fluorescence intensity), Table 4: 44 ± 2%
SMILES: Cc1ccc(S(=O)(=O)NC(=O)COc2ccc3ccccc3c2)cc1 [Compound 25w, 2-(Naphthalen-2-yloxy)-N-tosylacetamide]

RFI (%) (relative fluorescence intensity), Table 4: 50 ± 3%
SMILES: COc1ccc(S(=O)(=O)NC(=O)COc2ccc3ccccc3c2)cc1OC [Compound 25i, N-((3,4-Dimethoxyphenyl)sulfonyl)-2-(naphthalen-2-yloxy)acetamide]

EPAC1 binding potency / affinity in words: decreased the binding potency | RFI (%) (relative fluorescence intensity), Table 4: 81 ± 4%
SMILES: O=C(COc1ccc2ccccc2c1)NS(=O)(=O)c1ccc(F)cc1 [Compound 25d, N-((4-Fluorophenyl)sulfonyl)-2-(naphthalen-2-yloxy)acetamide]

RFI (%) (relative fluorescence intensity), Table 4: 36 ± 3%
SMILES: Cc1cc(-c2cncc(F)c2)cc(S(=O)(=O)NC(=O)COc2ccc3ccccc3c2)c1 [Compound 25r, N-((3-(5-Fluoropyridin-3-yl)-5-methylphenyl)sulfonyl)-2-(naphthalen-2-yloxy)acetamide]

RFI (%) (relative fluorescence intensity), Table 4: 23 ± 4%
SMILES: COc1ccc2ccc(OCC(=O)NS(=O)(=O)c3ccc(OC)c(OC)c3)cc2c1 [Compound 25p, N-((3,4-Dimethoxyphenyl)sulfonyl)-2-((7-methoxynaphthalen-2-yl)oxy)acetamide]

RFI (%) (relative fluorescence intensity), Table 4: 33 ± 3%
SMILES: COc1cccc(S(=O)(=O)NC(=O)COc2ccc3ccccc3c2)c1 [Compound 25z, N-((3-methoxyphenyl)sulfonyl)-2-(naphthalen-2-yloxy)acetamide]

RFI (%) (relative fluorescence intensity), Table 4: 53 ± 2%
SMILES: O=C(COc1ccc2ccccc2c1)NS(=O)(=O)c1cccc(-c2ccoc2)c1 [Compound 25ab, N-3-(Furan-3-yl)phenylsulfonyl-2-(naphthalene-2-yloxy)acetamide]

RFI (%) (relative fluorescence intensity), Table 4: 49 ± 4%
SMILES: COc1ccc(OC)c(S(=O)(=O)NC(=O)COc2ccc3ccc(OC)cc3c2)c1 [Compound 25o, N-((2,5-Dimethoxyphenyl)sulfonyl)-2-((7-methoxynaphthalen-2-yl)oxy)acetamide]

RFI (%) (relative fluorescence intensity), Table 4: 71 ± 1%
SMILES: COC(=O)c1cccc(S(=O)(=O)NC(=O)COc2ccc3ccccc3c2)c1 [Compound 25ad, Methyl 3-(N-(2-(naphthalene-2-yloxy)acetyl)sulfamoyl)benzoate]

RFI (%) (relative fluorescence intensity), Table 4: 29 ± 8%
SMILES: COc1ccc2ccc(OCC(=O)NS(=O)(=O)c3cc(C)cc(Br)c3)cc2c1 [Compound 25k, N-((3-Bromo-5-methylphenyl)sulfonyl)-2-((7-methoxynaphthalen-2-yl)oxy)acetamide]

RFI (%) (relative fluorescence intensity), Table 4: 40 ± 1%
SMILES: Cc1cc(-c2ccco2)cc(S(=O)(=O)NC(=O)COc2ccc3ccccc3c2)c1 [Compound 25s, N-((3-(Furan-2-yl)-5-methylphenyl)sulfonyl)-2-(naphthalen-2-yloxy)acetamide]

RFI (%) (relative fluorescence intensity), Table 4: 72 ± 4%
SMILES: COc1ccc(OC)c(S(=O)(=O)NC(=O)COc2ccc3ccccc3c2)c1 [Compound 25h, N-((2,5-Dimethoxyphenyl)sulfonyl)-2-(naphthalen-2-yloxy)acetamide]
